{"source": "patent US7179934B2", "about": "“Amino acids with affinity for the α2δ-protein” (Warner-Lambert Company LLC, priority 2003, dated 2007)", "test_system": "α2δ-subunit derived from porcine brain tissue", "assay": "radioligand binding assay using [3H]-gabapentin", "conditions": "[3H]-gabapentin radioligand", "from_the_text": "The ability of compounds of the present invention to bind to the α2δ-subunit of a calcium channel can be determined using the following binding assay.\nThe radioligand binding assay using [^3H]-gabapentin and the α2δ-subunit derived from porcine brain tissue was used. See Nicolas S. Gee et al., “The novel anticonvulsant drug, gabapentin (Neurontin), binds to the α2δ subunit of a calcium channel,” J. Biol. Chem. 271 (10):5768–76 (1996). Compounds of the invention bind with nanomolar to micromolar affinity for the α2δ protein.", "data": [{"smiles": "CCCCC(CC)CCC(CN)C(=O)O", "note": "(stereo not shown) [2-aminomethyl-5-ethyl-nonanoic acid]", "values": [{"measurement": "affinity to the α2δ protein", "result": 75, "unit": "nM"}]}]}
